How the values were obtained:
eRF1 [1] = molecular target: T1, eRF1 (Saccharomyces cerevisiae, UniProt P12385); assay: photoaffinity labeling with [3H]-AzAt, saturation curve on isolated eRF1 (SDS-PAGE gel slice radioactivity); format: binding
T1 construct: gene SUP45; Full-length S. cerevisiae eRF1
Excerpt: photoaffinity labeling with [3H]-AzAt, saturation curve on isolated eRF1 (SDS-PAGE gel slice radioactivity) on eRF1 | Photoincorporation into isolated eRF1 as a function of AzAt concentration results in a simple hyperbolic saturation curve

eRF1 [2] = molecular target: T1, eRF1; assay: competition with [3H]-AzAt photoaffinity labeling of isolated eRF1 ([…] ataluren vs […] AzAt); format: binding

T1 sequence (P12385 whole entry): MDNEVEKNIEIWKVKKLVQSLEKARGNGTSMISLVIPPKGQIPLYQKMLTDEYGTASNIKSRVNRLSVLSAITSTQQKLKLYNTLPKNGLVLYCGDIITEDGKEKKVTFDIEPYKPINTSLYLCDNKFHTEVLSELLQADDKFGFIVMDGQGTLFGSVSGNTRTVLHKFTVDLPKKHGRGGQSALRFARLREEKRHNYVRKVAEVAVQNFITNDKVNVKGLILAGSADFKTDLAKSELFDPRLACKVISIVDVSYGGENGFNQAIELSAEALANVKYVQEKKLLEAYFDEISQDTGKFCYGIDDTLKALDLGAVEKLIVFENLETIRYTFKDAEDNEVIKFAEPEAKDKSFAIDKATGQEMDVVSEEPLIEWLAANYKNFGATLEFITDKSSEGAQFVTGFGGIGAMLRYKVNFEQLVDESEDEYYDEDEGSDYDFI

Structure (SMILES)	EC50 (eRF1 [1])	competition with [3H]-AzAt photoaffinity labeling of isolated eRF1 (1000 μM atal) (eRF1 [2])
[N-]=[N+]=Nc1ccc(-c2nc(-c3cccc(C(=O)O)c3)no2)cc1 [AzAt, 3-(5-(4-azidophenyl)-1,2,4-oxadiazol-3-yl) benzoic acid]	110 ± 20 µM	
O=C(O)c1cccc(-c2noc(-c3ccccc3F)n2)c1 [ataluren]		both ataluren and GJ072, an ataluren-like TRID, substantially inhibit AzAt photoincorporation into isolated eRF1
